Assay results taken from US11912694B1, “2-(benzo[d]oxazol-2-yl)-N′-(2-(5-(4-chlorophenyl)-1,3,4-oxadiazol-2-ylthio)acetoxy)acetimidamide as an antimicrobial compound” (KING FAISAL UNIVERSITY, priority 2023, dated 2024).

Assays:
Bacillus cereus = test: Agar plate disc-diffusion, antibacterial, Bacillus cereus; assay type: cell-based; settings: nutrient agar, 37° C., 48 hours
Procedure: (§1) The agar plate disc-diffusion method was applied. Sterilized filter papers (6 mm in diameter) were wetted with 10 μL of a solution of 2-(benzo[d]oxazol-2-yl)-N′-(2-(5-(4-chlorophenyl)-1,3,4-oxadiazol-2-ylthio)acetoxy)acetimidamide (3) to be tested, […], and the discs were allowed to air dry. The discs were then placed onto the surface of agar plates (nutrient agar for bacteria and Sabouraud's dextrose agar for fungi) seeded with the test organism. Each plate contained 15 mL of the agar medium, previously seeded with 0.2 mL of the broth culture of each organism pregrown for 18 hours. The plates were incubated at 37° C. for 48 hours and 72 hours for fungi. The inhibition zones were measured in mm. Discs impregnated with DMSO were used as a control, and their inhibition zone was subtracted from the tested compound's actual inhibition zone.

Staphylococcus aureus = test: Agar plate disc-diffusion, antibacterial, Staphylococcus aureus; assay type: cell-based; settings: nutrient agar, 37° C., 48 hours
Procedure: as §1

Pseudomonas aeruginosa = test: Agar plate disc-diffusion, antibacterial, Pseudomonas aeruginosa; assay type: cell-based; settings: nutrient agar, 37° C., 48 hours
Procedure: as §1

Escherichia coli = test: Agar plate disc-diffusion, antibacterial, Escherichia coli; assay type: cell-based; settings: nutrient agar, 37° C., 48 hours
Procedure: as §1

Aspergillus flavus = test: Agar plate disc-diffusion, antifungal, Aspergillus flavus; assay type: cell-based; settings: Sabouraud's dextrose agar, 37° C., 72 hours
Procedure: as §1

[1] = tested on: Chrysosporium keratinophilum; test: Agar plate disc-diffusion, antifungal, Chrysosporium keratinophilum; assay type: cell-based; settings: Sabouraud's dextrose agar, 37° C., 72 hours
Procedure: as §1

[2] = A = concentration of comp. = 10,000 μL
[3] = B = concentration of comp. = 30,000 μL
[4] = C = concentration of comp. = 50,000 μL
[5] = A = concentration of comp. = 10,000 μg/mL
[6] = A = concentration of comp. = 10 mg/mL

| Compound | inhibition zone (Bacillus cereus; [2]) | inhibition zone (Bacillus cereus; [3]) | inhibition zone (Bacillus cereus; [4]) | inhibition zone (Staphylococcus aureus; [2]) | inhibition zone (Staphylococcus aureus; [3]) | inhibition zone (Staphylococcus aureus; [4]) | inhibition zone (Pseudomonas aeruginosa; [5]) | inhibition zone (Pseudomonas aeruginosa; [3]) | inhibition zone (Pseudomonas aeruginosa; [4]) | inhibition zone (Escherichia coli; [5]) | inhibition zone (Escherichia coli; [3]) | inhibition zone (Escherichia coli; [4]) | inhibition zone (Aspergillus flavus; [2]) | inhibition zone (Aspergillus flavus; [3]) | inhibition zone (Aspergillus flavus; [4]) | inhibition zone [1, 6] | inhibition zone [1, 3] | inhibition zone [1, 4] | melting point |
| --- | --- | --- | --- | --- | --- | --- | --- | --- | --- | --- | --- | --- | --- | --- | --- | --- | --- | --- | --- |
| O=C(O)c1cn(C2CC2)c2cc(N3CCNCC3)c(F)cc2c1=O [Cip., ciprofloxacin, reference compound] | 29 mm | 30 mm | 42 mm | 43 mm | 44 mm | 53 mm | 29 mm | 30 mm | 53 mm | 30 mm | 39 mm | 60 mm | 29 mm | 30 mm | 42 mm | 29 mm | 30 mm | 53 mm |  |
| N/C(Cc1nc2ccccc2o1)=N\OC(=O)CSc1nnc(-c2ccc(Cl)cc2)o1 [Compound 3, 2-(benzo[d]oxazol-2-yl)-N′-(2-(5-(4-chlorophenyl)-1,3,4-oxadiazol-2-ylthio)acetoxy)acetimidamide] | 27 mm | 30 mm | 41 mm | 27 mm | 35 mm | 42 mm | 24 mm | 29 mm | 36 mm | 28 mm | 37 mm | 49 mm | 25 mm | 30 mm | 41 mm | 28 mm | 35 mm | 47 mm | 162 to 163 °C |
